“And” between values parts separate entries of the source, which are not always exact repeats. Identical values can stand only once.
Columns and labels:
Mus musculus = test: Effect on peripheral lymphocyte lowering in orally dosed mouse; type: functional
[1] = molecular target: Sphingosine 1-phosphate receptor 2 (Homo sapiens, UniProt O95136); test: Displacement of [33P]S1P from human S1P2 receptor expressed in CHO cells; type: cell-based
[2] = molecular target: Sphingosine 1-phosphate receptor 1 (Homo sapiens, UniProt P21453); test: […] of [35S]GTPgammaS from human S1P1 receptor expressed in CHO cells; type: functional, cell-based
Sequence of Sphingosine 1-phosphate receptor 1 (P21453 whole entry): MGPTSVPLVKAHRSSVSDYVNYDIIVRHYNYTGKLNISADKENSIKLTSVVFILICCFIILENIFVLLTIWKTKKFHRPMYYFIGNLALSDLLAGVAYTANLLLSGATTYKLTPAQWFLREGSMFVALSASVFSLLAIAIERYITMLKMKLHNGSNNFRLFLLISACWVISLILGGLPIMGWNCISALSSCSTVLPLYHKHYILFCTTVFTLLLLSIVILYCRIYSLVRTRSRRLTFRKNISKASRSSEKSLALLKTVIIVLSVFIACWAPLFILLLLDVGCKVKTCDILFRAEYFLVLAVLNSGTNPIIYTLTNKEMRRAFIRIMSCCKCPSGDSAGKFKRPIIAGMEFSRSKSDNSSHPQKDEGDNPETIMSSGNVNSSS

[3] = molecular target: T1, Sphingosine 1-phosphate receptor 4 (Homo sapiens, UniProt O95977); test: Displacement of [33P]S1P from human S1P4 receptor expressed in CHO cells; type: cell-based
T1 sequence (O95977 whole entry): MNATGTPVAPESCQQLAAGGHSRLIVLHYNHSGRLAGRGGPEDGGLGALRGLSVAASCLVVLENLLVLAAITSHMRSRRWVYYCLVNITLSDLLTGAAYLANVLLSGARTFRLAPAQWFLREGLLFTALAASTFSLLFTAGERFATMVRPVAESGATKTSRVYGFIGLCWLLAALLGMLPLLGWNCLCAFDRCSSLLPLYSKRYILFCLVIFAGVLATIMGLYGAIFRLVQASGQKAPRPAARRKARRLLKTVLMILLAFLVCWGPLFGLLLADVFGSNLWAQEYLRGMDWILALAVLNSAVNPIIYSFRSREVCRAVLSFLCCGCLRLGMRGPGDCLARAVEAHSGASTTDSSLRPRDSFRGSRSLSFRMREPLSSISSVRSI

[4] = (§1) Half life in Sprague-Dawley rat at 1.0 mg/kg, iv or 2.0 mg/kg, po; type: ADME, organism-based; conditions: Sprague-Dawley, in vivo
[5] = (§2) Bioavailability in Sprague-Dawley rat at 2.0 mg/kg, po; type: ADME, organism-based; conditions: Sprague-Dawley, in vivo
[6] = molecular target: Sphingosine 1-phosphate receptor 5 (Homo sapiens, UniProt Q9H228); test: […] of [35S]GTP-gamma-S from human S1P5 receptor expressed in CHO cells; type: functional, cell-based
Sequence of Sphingosine 1-phosphate receptor 5 (Q9H228 whole entry): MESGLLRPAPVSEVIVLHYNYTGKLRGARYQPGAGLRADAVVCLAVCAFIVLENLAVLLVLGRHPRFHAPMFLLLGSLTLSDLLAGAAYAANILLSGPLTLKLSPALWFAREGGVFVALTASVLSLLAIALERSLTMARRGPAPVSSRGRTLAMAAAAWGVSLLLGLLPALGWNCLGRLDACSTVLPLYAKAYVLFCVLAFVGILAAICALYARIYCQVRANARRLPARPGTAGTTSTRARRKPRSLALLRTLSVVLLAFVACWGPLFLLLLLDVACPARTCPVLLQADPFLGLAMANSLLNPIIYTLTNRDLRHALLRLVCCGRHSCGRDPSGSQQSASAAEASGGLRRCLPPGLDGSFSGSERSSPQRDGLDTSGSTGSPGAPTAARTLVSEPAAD

[7] = molecular target: Sphingosine 1-phosphate receptor 3 (Homo sapiens, UniProt Q99500); test: […] of [35S]GTP-gamma-S from human S1P3 receptor expressed in CHO cells; type: functional, cell-based
Sequence of Sphingosine 1-phosphate receptor 3 (Q99500 whole entry): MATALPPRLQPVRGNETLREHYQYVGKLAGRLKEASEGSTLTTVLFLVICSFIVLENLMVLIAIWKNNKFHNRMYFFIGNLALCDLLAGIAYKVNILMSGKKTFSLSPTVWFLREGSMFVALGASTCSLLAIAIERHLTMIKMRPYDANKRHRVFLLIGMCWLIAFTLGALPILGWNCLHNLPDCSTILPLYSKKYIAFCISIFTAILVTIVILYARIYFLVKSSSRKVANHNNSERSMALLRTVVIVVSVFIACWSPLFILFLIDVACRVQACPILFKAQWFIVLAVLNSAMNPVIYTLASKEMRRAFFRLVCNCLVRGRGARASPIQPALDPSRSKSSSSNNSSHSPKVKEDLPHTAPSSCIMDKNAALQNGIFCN

[8] = Plasma clearance in Sprague-Dawley rat at 1.0 mg/kg, iv or 2.0 mg/kg, po; type: ADME, organism-based
[9] = (§3) Volume of distribution at steady state in Sprague-Dawley rat at 1.0 mg/kg, iv or 2.0 mg/kg, po; type: ADME, organism-based; conditions: Sprague-Dawley, in vivo, read-out: Vdss
Rattus norvegicus [10] = test: as §1; type: ADME, organism-based; conditions: in vivo
Rattus norvegicus [11] = test: as §2; type: ADME, organism-based; conditions: in vivo
Rattus norvegicus [12] = test: as §3; type: ADME, organism-based; conditions: in vivo
[13] = Mus musculus, po, read-out: ED50

Sequence of Sphingosine 1-phosphate receptor 2 (O95136 whole entry): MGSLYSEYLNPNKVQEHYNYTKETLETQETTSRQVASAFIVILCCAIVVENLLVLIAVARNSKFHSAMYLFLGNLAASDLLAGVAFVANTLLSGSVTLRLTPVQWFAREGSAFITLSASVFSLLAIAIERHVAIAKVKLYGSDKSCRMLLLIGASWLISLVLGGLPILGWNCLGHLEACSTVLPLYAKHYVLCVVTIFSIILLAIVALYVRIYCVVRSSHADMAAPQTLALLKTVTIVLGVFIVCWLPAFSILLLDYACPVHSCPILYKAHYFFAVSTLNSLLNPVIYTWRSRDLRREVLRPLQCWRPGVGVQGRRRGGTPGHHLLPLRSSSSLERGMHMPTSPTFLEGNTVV

SMILES | ED50 (Mus musculus; [13]) [mg/kg] | IC50 [1] [nM] | EC50 [2] | IC50 [3] [nM] | half-life [4] [h] | bioavailability [5] [%] | EC50 [6] [nM] | EC50 [7] | clearance [8] [mL/min/kg] | Vd [9] [L/kg] | t1/2 (Rattus norvegicus [10]) [h] | ED50 (Mus musculus) [mg/kg] | F (Rattus norvegicus [11]) [%] | Vdss (Rattus norvegicus [12])
Cc1cc(CCC(=O)O)ccc1-c1noc(-c2ccc(OC(C)C)c(C(F)(F)F)c2)n1 | 0.3 | > 10000 | 0.08 nM | > 10000 |  |  |  |  |  |  |  |  |  | 
Cc1cc(CCC(=O)O)ccc1-c1noc(-c2ccc(OC(C)C)c(C#N)c2)n1 | 0.1 | > 10000 | 0.08 nM | > 10000 |  |  |  |  |  |  |  |  |  | 
Cc1cc(CC(C)C(=O)O)ccc1-c1noc(-c2ccc(OC(C)C)c(C(F)(F)F)c2)n1 (stereo not drawn) | 0.1 | > 10000 | 0.3 nM | > 10000 | 1.7 | 82 | 9.9 | 400 nM | 7 | 1.5 |  |  |  | 
Cc1nc(CCC(=O)O)ccc1-c1noc(-c2ccc(OC(C)C)c(C#N)c2)n1 | 0.2 | > 10000 | 0.44 nM | > 10000 | 2.4 | 93 | 28.6 | 2760 nM | 1.2 | 0.3 |  |  |  | 
Cc1cc([C@H]2C[C@H]2C(=O)O)ccc1-c1noc(-c2ccc(OC(C)C)c(C#N)c2)n1 | 0.7 | > 10000 | 0.8 nM | > 10000 | 7.4 | 89 | 37.7 | > 1000 nM | 1.2 | 0.7 |  |  |  | 
Cc1cc([C@@H]2C[C@H]2C(=O)O)ccc1-c1noc(-c2ccc(OC(C)C)c(C#N)c2)n1 | 0.3 | > 10000 | 0.93 nM and 0.31 nM | > 10000 | 4.9 | 84 |  | 2660 nM and 2600 nM and > 10000 nM |  |  | 5.9 | 0.2 | 90 | 1 L/kg and 0.4 L/kg
Cc1cc(C(C)CC(=O)O)ccc1-c1noc(-c2ccc(OC(C)C)c(C(F)(F)F)c2)n1 (stereo not drawn) | 0.1 | > 10000 | 0.12 nM | > 10000 | 3.1 | 100 | 3.9 | 184 nM | 2.9 | 0.6 |  |  |  | 
Cc1cc([C@@H]2C[C@H]2C(=O)O)ccc1-c1noc(-c2ccc(OC(C)C)c(C(F)(F)F)c2)n1 | 0.2 | > 10000 |  | > 10000 | 6.3 | 88 | 5.1 | 123 nM | 2.4 | 1.1 |  |  |  | 
